Consider 27 compounds from patent publication US20230159546A1, “NOVEL SPIROPYRROLIDINE DERIVED ANTIVIRAL AGENTS” (Enanta Pharmaceuticals, Inc., priority 2021, published 2023).

For experiment [1], the system named is 229E human corona virus (hCoV). Nature of the experiment: 229E live virus assay (CPE, ATPlite readout, MRC-5 cells). The format is cell-based, hCoV-229E. The note with it: Human coronavirus 229E, MRC5, 144 h, read-out: 229E EC50.
In another experiment the target is SARS-CoV-2 3CL-protease (Severe acute respiratory syndrome coronavirus 2, UniProt P0DTD1). In words: SARS-CoV-2 3C-like (3CL) protease fluorescence assay (FRET). The class given is biochemical. To be noted: recombinant SARS-CoV-2 3CL-protease 10 nM, 30 min preincubation at RT, duplicate; read-out: FRET IC50.
Where [2] appears, read: MRC-5 cells, MOI 0.05, 6 days at 34° C., ATPlite, duplicate.

Where two headings read alike, the source gives them in different places.

On to `N#C[C@@H]1C[C@@]2(CN1C(=O)C(F)(Cc1ccccc1)C(=O)Nc1ccccc1)C(=O)Nc1ccccc12` (stereo partly shown) [Example 27], for which, in experiment [1] (setting [2]), the 50% effective concentration (EC50) (usually the concentration needed to bring the measured effect to its halfway point) is greater than 1000 nM. Besides, the IC50 (as a rule, the concentration needed to halve the response being measured) at SARS-CoV-2 3CL-protease was greater than 1000 nM.
`N#C[C@@H]1C[C@@]2(CN1C(=O)C(F)(Cc1ccccc1)C(=O)Nc1cc(F)cc(F)c1)C(=O)Nc1ccccc12` (stereo partly shown) [Example 28]: the EC50 in experiment [1] (setting [2]) was greater than 1000 nM. At SARS-CoV-2 3CL-protease, the IC50 is greater than 1000 nM.
For `CC(=O)N1C[C@]2(C[C@H]1C#N)C(=O)Nc1ccccc12` [Example 29], in experiment [1] (setting [2]), the EC50 lay in the range of 100 to 1000 nM. Moreover, the IC50 at SARS-CoV-2 3CL-protease was greater than 1000 nM.
Regarding `N#C[C@@H]1C[C@@]2(CN1C(=O)c1ccccc1)C(=O)Nc1ccccc12` [Example 30], in experiment [1] (setting [2]), the EC50 is 100 to 1000 nM. Moreover, the IC50 on SARS-CoV-2 3CL-protease was greater than 1000 nM.
With `CC(C)CC(C(=O)N1C[C@]2(C[C@H]1C#N)C(=O)Nc1ccccc12)c1ccc(NC(=O)c2cc3c(F)cccc3[nH]2)cn1` (stereo partly shown) [Example 31], in experiment [1] (setting [2]), the EC50 was greater than 1000 nM. Also, on SARS-CoV-2 3CL-protease, the IC50 was greater than 1000 nM.
`Cc1ccc(S(=O)(=O)N2C[C@]3(C[C@H]2C#N)C(=O)Nc2ccccc23)cc1` [Example 32]: in experiment [1], the EC50 was greater than 1000 nM. Further, the IC50 at SARS-CoV-2 3CL-protease is greater than 1000 nM.
Take `N#C[C@@H]1C[C@@]2(CN1S(=O)(=O)c1ncc(-c3ccc(F)cc3)s1)C(=O)Nc1ccccc12` [Example 33]: the EC50 in experiment [1] (setting [2]) was greater than 1000 nM. The IC50 at SARS-CoV-2 3CL-protease was greater than 1000 nM.
As to `Cc1nc(-c2ccc(S(=O)(=O)N3C[C@]4(C[C@H]3C#N)C(=O)Nc3ccccc34)s2)cs1` [Example 34], the EC50 in experiment [1] (setting [2]) is greater than 1000 nM. Further, on SARS-CoV-2 3CL-protease, the IC50 was greater than 1000 nM.
As for `N#C[C@@H]1C[C@@]2(CN1S(=O)(=O)c1ccc(Oc3ccccc3)cc1)C(=O)Nc1ccccc12` [Example 35], the EC50 in experiment [1] (setting [2]) was greater than 1000 nM. Also, the IC50 on SARS-CoV-2 3CL-protease is greater than 1000 nM.
Take `N#C[C@@H]1C[C@@]2(CN1C(=O)c1ccc(-c3ccccc3)cc1)C(=O)Nc1ccccc12` [Example 36]: the EC50 in experiment [1] (setting [2]) is greater than 1000 nM. For the same compound, the half-maximal inhibitory concentration (IC50) on SARS-CoV-2 3CL-protease is greater than 1000 nM.
Take `N#C[C@@H]1C[C@@]2(CN1C(=O)c1cc3ccccc3nc1Cl)C(=O)Nc1ccccc12` [Example 37]: the EC50 in experiment [1] (setting [2]) was greater than 1000 nM. Besides, the IC50 on SARS-CoV-2 3CL-protease was greater than 1000 nM.
Take `N#C[C@@H]1C[C@@]2(CN1C(=O)NC1CCCCC1)C(=O)Nc1ccccc12` [Example 38]: in experiment [1] (setting [2]), the EC50 is less than 100 nM. Besides, at SARS-CoV-2 3CL-protease, the IC50 was greater than 1000 nM.
Regarding `N#C[C@@H]1C[C@@]2(CN1CC1CCCCC1)C(=O)Nc1ccccc12` [Example 39], the concentration giving a half-maximal response (EC50) in experiment [1] (setting [2]) was greater than 1000 nM. Moreover, the IC50 on SARS-CoV-2 3CL-protease is greater than 1000 nM.
In the case of `N#C[C@@H]1C[C@@]2(CN1C(=O)C(=O)NC1(c3ccccc3)CCCC1)C(=O)Nc1ccccc12` [Example 175], the IC50 at SARS-CoV-2 3CL-protease is less than 100 nM.
Same read-out and setting: for `N#C[C@@H]1C[C@@]2(CN1C(=O)C(=O)Nc1cnccc1C(F)(F)F)C(=O)Nc1ccccc12` [Example 176] the value was greater than 1000 nM; for `C[C@]1(O)CC[C@H](NC(=O)C(=O)N2C[C@]3(C[C@H]2C#N)C(=O)Nc2ccccc23)CC1` [Example 177], greater than 1000 nM; for `C[C@]1(O)CC[C@@H](NC(=O)C(=O)N2C[C@]3(C[C@H]2C#N)C(=O)Nc2ccccc23)CC1` [Example 178], greater than 1000 nM.
In the case of `CC1(NC(=O)C(=O)N2C[C@]3(C[C@H]2C#N)C(=O)Nc2ccccc23)CCCC1` [Example 179], the IC50 at SARS-CoV-2 3CL-protease was in the range of 100 to 1000 nM.
With `N#C[C@@H]1C[C@@]2(CN1C(=O)CC(=O)N[C@H]1CC[C@H](O)C1)C(=O)Nc1ccccc12` [Example 180], the IC50 at SARS-CoV-2 3CL-protease was greater than 1000 nM.
Consider `N#C[C@@H]1C[C@@]2(CN1C(=O)CC(=O)N[C@@H]1CC[C@@H](O)C1)C(=O)Nc1ccccc12` [Example 181], for which the 50% inhibitory concentration (IC50) on SARS-CoV-2 3CL-protease was greater than 1000 nM.
The same measure, in the same setting: for `N#C[C@@H]1C[C@@]2(CN1C(=O)CC(=O)N[C@H]1CC[C@@H](O)C1)C(=O)Nc1ccccc12` [Example 182] the value was greater than 1000 nM.
In the case of `N#C[C@@H]1C[C@@]2(CN1C(=O)CC(=O)N[C@@H]1CC[C@H](O)C1)C(=O)Nc1ccccc12` [Example 183], the IC50 on SARS-CoV-2 3CL-protease was greater than 1000 nM.
On to `CCCC(CCC)(CCC)NC(=O)C(=O)N1C[C@]2(C[C@H]1C#N)C(=O)Nc1ccccc12` [Example 185], for which the 50% inhibitory concentration (IC50) at SARS-CoV-2 3CL-protease fell in the range of 100 to 1000 nM.
On the same count and under the same terms, for `N#C[C@@H]1C[C@@]2(CN1C(=O)C(=O)NCc1cc(F)c(F)cc1F)C(=O)Nc1ccccc12` [Example 186] the value was greater than 1000 nM.
As for `N#C[C@@H]1C[C@@]2(CN1C(=O)C(=O)NCCc1cc(F)cc(F)c1F)C(=O)Nc1ccccc12` [Example 187], the IC50 on SARS-CoV-2 3CL-protease was greater than 1000 nM.
Take `Cc1cccc(C)c1NC(CC(=O)N(C)[C@@H](CC(C)C)C(=O)N1C[C@]2(C[C@H]1C#N)C(=O)Nc1ccccc12)C(F)(F)F` (stereo partly shown) [Example 198]: the IC50 at SARS-CoV-2 3CL-protease is less than 100 nM.
Turning to `N#C[C@@H]1C[C@@]2(CN1C(=O)C(=O)Nc1cncc(C(F)(F)F)c1)C(=O)Nc1ccccc12` [Example 199], the IC50 at SARS-CoV-2 3CL-protease was greater than 1000 nM.
